Results from US20250000896A1, “Xenon Gas for Use in the Treatment of Gliomas” (Universität Heidelberg, priority 2021, published 2025).

What was measured:
Assay type in all cases: cell-based
[1] = system: U251 glioma cells; assay: Colony formation assay (CFA) with U251 glioma cells after irradiation; conditions: 50% Xe for 60 min after irradiation and/or 25 μM memantine, colonies counted after 11 days
Text: (§1) In radiobiological research, colony formation assay (CFA) represents an established method to evaluate the in-vitro-effects of radiation treatment (RT) alone or in combination with additional substances on cell survival and reproduction capability. To provide a method for investigation of modulating properties mediated by gaseous agents in combination with ionizing radiation treatment, a system to combine CFA with gas exposure before, during or after radiation treatment was designed. Subsequently CFA were performed with established glioma cell lines U87MG and U251, as well as cervical cancer-derived cell line HeLa investigating the effect of xenon gas exposure on cell survival after radiation treatment. Expression of AMPAR and NMDAR subunits was tested by immunofluorescence staining. In vitro colony formation assay (CFA) comparing surviving fractions of irradiated U87MG cells and U251 cells exposed to 50% Xe and/or treated with 25 μM of memantine to a control group were performed. Additionally, a CFA comparing surviving fractions of irradiated HeLa cells exposed to 50% Xe to a control group was implemented. CFA were carried out in triplets of T25-flasks for each irradiation dose of 0, 2, 4, 6 and 8 Gy in three (U87MG and HeLa) or four (U251) independent repetitions. U87MG and HeLa cells were cultured in Dulbecco's modified eagle's medium (DMEM; U87: Biochrom AG, Berlin, Germany; HeLa: Thermo Fisher Scientific, Waltham, US) and U251 cells were cultured in Gibco Roswell Park Memorial Institute (RPMI) 1640 medium+GlutaMAX™ (Thermo Fisher Scientific, Waltham, US). Cells were stored in an incubator (ambient air with additional 5% CO2) and split regularly before confluence. In preparation of CFA, cells were dissolved, counted, and distributed into T25-flasks starting with 1000 cells (U87MG), 100 cells (U251), or 200 cells (HeLa) per flask for non-irradiated groups increasing the cell count with irradiation dose to 1000, 2000, 5000, and 10.000 cells (U87MG), 200, 600, 2000, and 5000 cells (U251), or 400, 800, 2000, and 4000 cells (HeLa), respectively. Cells were allowed to attach for 14 to 16 h (U87MG), for 4 h (U251), or for 5.5 h (HeLa) and 108 μl of either memantine-hydrochloride 0.25 mg/ml (Sigma-Aldrich Corp., St. Louis, USA) or distilled water as placebo were added 60 min at U87MG and 90 min at U251 and HeLa prior to irradiation, resulting in 25 μM memantine-hydrochloride per flask. For irradiation, 15 flasks (5 triplets, each for 0, 2, 4, 6, 8 Gy) were placed alongside the margin of eight acrylic glass plates (thickness 1.0 cm) with two plates further added on top to balance secondary electrons. Vertical position to the gantry of a conventional linear accelerator (Elekta Synergy, Elekta AB, Stockholm, Sweden) was allocated by wall-mounted lasers marking the center of the flasks' caps membrane, horizontal position was validated by opening the linear accelerator's light field (32.0×32.0 cm) and by positioning the plates centrally inside the field. The triplet from the 0 Gy dose-group was removed immediately after placement (sham-irradiation) and exchanged with dummy T25-flasks filled with water. After delivery of 181.2 MU of 6 MeV photons, equivalent to an effective dose of 2 Gy, the 2 Gy-triplet was removed and replaced by dummy flasks. This process was repeated until a cumulative dose of 8 Gy for the last triplet was reached. Gas exposure was performed after the radiation treatment described above. The flasks were exposed to a preformed gas mixture for 60 minutes containing either 75% Xe, 20% O2 and 5% CO2 for the xenon group or a mixture with the 75% Xe-proportion replaced by nitrogen (N2) for the memantine group and the control group. […] After exposure, the flasks membrane caps were sealed with custom PVC-plugs and stored in a heat cabinet for 24 hours. Finally, the membrane caps' plugs were removed and the flasks were transferred into the 5% CO2-incubator remaining untouched for 13 days (U87MG), 10 days (U251), or 10 days (HeLa). […]

[2] = system: U87MG glioma cells; assay: Colony formation assay (CFA) with U87MG glioma cells after irradiation; conditions: for mean survival fraction in relation to the control group: 50% Xe for 60 min after irradiation and/or 25 μM memantine, colonies counted after 14 days
Text: as §1

[3] = system: HeLa cervical cancer cells; assay: Colony formation assay (CFA) with HeLa cervical cancer cells after irradiation; conditions: for mean survival fraction in relation to the control group: 50% Xe for 60 min after irradiation, colonies counted after 11 days
Text: In radiobiological research, colony formation assay (CFA) represents an established method to evaluate the in-vitro-effects of radiation treatment (RT) alone or in combination with additional substances on cell survival and reproduction capability.
To provide a method for investigation of modulating properties mediated by gaseous agents in combination with ionizing radiation treatment, a system to combine CFA with gas exposure before, during or after radiation treatment was designed. Subsequently CFA were performed with established glioma cell lines U87MG and U251, as well as cervical cancer-derived cell line HeLa investigating the effect of xenon gas exposure on cell survival after radiation treatment. Expression of AMPAR and NMDAR subunits was tested by immunofluorescence staining.
In vitro colony formation assay (CFA) comparing surviving fractions of irradiated U87MG cells and U251 cells exposed to 50% Xe and/or treated with 25 μM of memantine to a control group were performed. Additionally, a CFA comparing surviving fractions of irradiated HeLa cells exposed to 50% Xe to a control group was implemented. CFA were carried out in triplets of T25-flasks for each irradiation dose of 0, 2, 4, 6 and 8 Gy in three (U87MG and HeLa) or four (U251) independent repetitions.
U87MG and HeLa cells were cultured in Dulbecco's modified eagle's medium (DMEM; U87: Biochrom AG, Berlin, Germany; HeLa: Thermo Fisher Scientific, Waltham, US) and U251 cells were cultured in Gibco Roswell Park Memorial Institute (RPMI) 1640 medium+GlutaMAX™ (Thermo Fisher Scientific, Waltham, US). Cells were stored in an incubator (ambient air with additional 5% CO2) and split regularly before confluence. In preparation of CFA, cells were dissolved, counted, and distributed into T25-flasks starting with 1000 cells (U87MG), 100 cells (U251), or 200 cells (HeLa) per flask for non-irradiated groups increasing the cell count with irradiation dose to 1000, 2000, 5000, and 10.000 cells (U87MG), 200, 600, 2000, and 5000 cells (U251), or 400, 800, 2000, and 4000 cells (HeLa), respectively. Cells were allowed to attach for 14 to 16 h (U87MG), for 4 h (U251), or for 5.5 h (HeLa) and 108 μl of either memantine-hydrochloride 0.25 mg/ml (Sigma-Aldrich Corp., St. Louis, USA) or distilled water as placebo were added 60 min at U87MG and 90 min at U251 and HeLa prior to irradiation, resulting in 25 μM memantine-hydrochloride per flask.
For irradiation, 15 flasks (5 triplets, each for 0, 2, 4, 6, 8 Gy) were placed alongside the margin of eight acrylic glass plates (thickness 1.0 cm) with two plates further added on top to balance secondary electrons. Vertical position to the gantry of a conventional linear accelerator (Elekta Synergy, Elekta AB, Stockholm, Sweden) was allocated by wall-mounted lasers marking the center of the flasks' caps membrane, horizontal position was validated by opening the linear accelerator's light field (32.0×32.0 cm) and by positioning the plates centrally inside the field. The triplet from the 0 Gy dose-group was removed immediately after placement (sham-irradiation) and exchanged with dummy T25-flasks filled with water. After delivery of 181.2 MU of 6 MeV photons, equivalent to an effective dose of 2 Gy, the 2 Gy-triplet was removed and replaced by dummy flasks. This process was repeated until a cumulative dose of 8 Gy for the last triplet was reached.
Gas exposure was performed after the radiation treatment described above. The flasks were exposed to a preformed gas mixture for 60 minutes containing either 75% Xe, 20% O2 and 5% CO2 for the xenon group or a mixture with the 75% Xe-proportion replaced by nitrogen (N2) for the memantine group and the control group. […] After exposure, the flasks membrane caps were sealed with custom PVC-plugs and stored in a heat cabinet for 24 hours. Finally, the membrane caps' plugs were removed and the flasks were transferred into the 5% CO2-incubator remaining untouched for 13 days (U87MG), 10 days (U251), or 10 days (HeLa). […]

SMILES | mean survival fraction in relation to the control group ([1]; radiation dose 0 Gy (sham)) | mean survival fraction in relation to the control group ([1]; radiation dose 2 Gy) | mean survival fraction in relation to the control group ([1]; radiation dose 4 Gy) | mean survival fraction in relation to the control group ([1]; radiation dose 6 Gy) | mean survival fraction in relation to the control group ([1]; radiation dose 8 Gy) | difference in survival to the groups without added memantine ([2]; 25 μM memantine, 0 to 8 Gy, t-test) | mean survival fraction in relation to the control group ([2]; radiation dose 0 Gy (sham)) | mean survival fraction in relation to the control group ([2]; radiation dose 2 Gy) | mean survival fraction in relation to the control group ([2]; radiation dose 4 Gy) | mean survival fraction in relation to the control group ([2]; radiation dose 6 Gy) | mean survival fraction in relation to the control group ([2]; radiation dose 8 Gy) | impact of xenon exposure after irradiation on HeLa cell survival ([3]; 50% Xe after irradiation, except at a very high radiation dose level) | mean survival fraction in relation to the control group ([3]; radiation dose 0 Gy (sham)) | mean survival fraction in relation to the control group ([3]; radiation dose 2 Gy) | mean survival fraction in relation to the control group ([3]; radiation dose 4 Gy) | mean survival fraction in relation to the control group ([3]; radiation dose 6 Gy) | mean survival fraction in relation to the control group ([3]; radiation dose 8 Gy)
CC12CC3CC(C)(C1)CC(N)(C3)C2 [memantine] | 72.3% | 34.1% | 11.9% | 3.8% | 1.0% | no significant differences | 93.8% | 46.8% | 28.5% | 15.9% | 8.0% |  |  |  |  |  | 
[Xe] [xenon] | 78.7% | 37.5% | 14.6% | 4.2% | 1.0% |  | 94.2% | 41.5% | 25.0% | 10.3% | 4.7% | no impact | 114.7% | 71.1% | 23.5% | 7.1% | 2.0%
